Data from publication PMC10840477 (Acta Pharmaceutica Sinica. B, 2023).

How the values were obtained:
[1] = system: ICR mice; assay: In vivo acute pulmonary thrombosis; parameters: species or system mouse; conditions: three days, positive control
[2] = target: P2Y12 (Homo sapiens, UniProt Q9H244); assay: P2Y12 β-Arrestin recruitment assay; assay type: cell-based; conditions: at similar concentrations as TP1; antagonist mode, n = 2
[3] = system: ICR mice; assay: Forced swimming test; assay type: in vivo, mouse; conditions: p.o. 20 mg/kg, positive control, final 4 min of 6 min test
[4] = system: ICR mice; assay: Tail suspension test; assay type: in vivo, mouse; conditions: p.o. 20 mg/kg, positive control, final 4 min of 6 min test

P2Y12, sequence (Q9H244 whole entry): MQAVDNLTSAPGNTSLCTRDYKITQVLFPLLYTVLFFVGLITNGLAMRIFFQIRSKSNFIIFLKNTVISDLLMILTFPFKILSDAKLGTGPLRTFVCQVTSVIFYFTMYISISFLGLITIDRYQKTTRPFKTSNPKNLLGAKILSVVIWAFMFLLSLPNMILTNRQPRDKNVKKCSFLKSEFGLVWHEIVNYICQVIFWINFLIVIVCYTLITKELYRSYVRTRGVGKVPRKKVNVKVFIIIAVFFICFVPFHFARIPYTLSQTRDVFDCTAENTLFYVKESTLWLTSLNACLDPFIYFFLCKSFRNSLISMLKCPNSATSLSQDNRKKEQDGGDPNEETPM

For CC(=O)Oc1ccccc1C(=O)O [aspirin], the “Thrombus formation in the lung, effect relative to ginsentide TP1” value ([1]; oral aspirin 100 mg/kg) was “comparable”.

In the case of CC(C)=CCC[C@](C)(O[C@@H]1O[C@H](CO)[C@@H](O)[C@H](O)[C@H]1O)[C@H]1CC[C@]2(C)[C@@H]1[C@H](O)C[C@@H]1[C@@]3(C)CC[C@H](O)C(C)(C)[C@@H]3[C@@H](O[C@@H]3O[C@H](CO)[C@@H](O)[C@H](O)[C@H]3O)C[C@]12C [ginsenoside Rg1], the “Inhibitory effects against P2Y12 activation” value [2] is reported as “did not display inhibitory effects”.

With COC(=O)[C@H](c1ccccc1Cl)N1CCc2sccc2C1 [clopidogrel] the “Thrombus formation in the lung, effect relative to ginsentide TP1” value ([1]; oral clopidogrel 50 mg/kg) was “comparable”.

With CNCCC(Oc1ccc(C(F)(F)F)cc1)c1ccccc1 (stereo not drawn) [fluoxetine] the “Decrease of immobility time, forced swimming test” value [3] was 42.52 ± 9.96 s and the “Decrease of immobility time, tail suspension test” value [4] was 30.01 ± 7.22 s.

With CC(C)=CCC[C@](C)(O[C@@H]1O[C@H](CO[C@@H]2O[C@H](CO)[C@@H](O)[C@H](O)[C@H]2O)[C@@H](O)[C@H](O)[C@H]1O)[C@H]1CC[C@]2(C)[C@@H]1[C@H](O)C[C@@H]1[C@@]3(C)CC[C@H](O[C@@H]4O[C@H](CO)[C@@H](O)[C@H](O)[C@H]4O[C@@H]4O[C@H](CO)[C@@H](O)[C@H](O)[C@H]4O)C(C)(C)[C@@H]3CC[C@]12C [ginsenoside Rb1] the “Inhibitory effects against P2Y12 activation” value [2] was “did not display inhibitory effects”.
